Source: article PMC3514216, “SRC Homology 2 Domain Binding Sites in Insulin, IGF-1 and FGF receptor mediated signaling networks reveal an extensive potential interactome” (Cell Communication and Signaling : CCS, 2012)

Assays:
PI3K1_C SH2 domain = PI3K1_C SH2 domain (Homo sapiens, UniProt P27986); assay: Fluorescence polarization solution binding; conditions: Rhodamine B-labeled peptide, GST-SH2, Beacon 2000, read-out: Affinity (KD)
Source text: (§1) To verify the binding results obtained from addressable peptide arrays we employed an orthogonal method of determining SH2 interactions with peptide ligands. We measured the dissociation constants of 60 binary SH2-peptide pairs in solution by fluorescence polarization (Table 2, Additional file 2: Figures S3A-C).
(§2) Peptides were synthesized using FMOC-chemistry onto pre-loaded tenta-gel resins. Peptides were then labeled with Rhodamine B (Abbey Color) and then cleaved using trifluoroacetic acid. Peptides were lyophilized and then purified using a LC/MS (Agilent 2100). Dissociation constants were measured using the Beacon 2000 (Invitrogen) as previously described.
(§3) Binding Affinities determined by Fluorescence Polarization. Rhodamine B-labeled peptides were mixed with varying concentrations of GST-tagged SH2 domains. Fluorescence polarization measurements were read on a Beacon 2000 (Invitrogen). The curves were fit to a Michaelis-Menten equation to calculate the dissociation constant, KD. […] (C) Affinity measurements that fell below the 2X mean intensity and were considered array negative on the SPOT array.

Ptpn11_N SH2 domain = target: T1, Ptpn11_N SH2 domain (Homo sapiens, UniProt Q06124); assay: Fluorescence polarization solution binding; conditions: Rhodamine B-labeled peptide, GST-SH2, Beacon 2000, read-out: Affinity (KD)
T1 sequence (Q06124 6-102 limits assumed): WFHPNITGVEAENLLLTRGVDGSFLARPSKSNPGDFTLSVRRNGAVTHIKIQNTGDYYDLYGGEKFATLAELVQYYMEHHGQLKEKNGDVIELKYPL
Source text: as §1, §2, §3

Shb SH2 domain = Shb SH2 domain (Homo sapiens, UniProt Q15464); assay: Fluorescence polarization solution binding; conditions: Rhodamine B-labeled peptide, GST-SH2, Beacon 2000, read-out: Affinity (KD)
Chain of Shb SH2 domain (Q15464 410-504 limits assumed): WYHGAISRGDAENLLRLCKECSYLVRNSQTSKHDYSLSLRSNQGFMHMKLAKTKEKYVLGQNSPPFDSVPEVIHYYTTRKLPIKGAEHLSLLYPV
Source text: as §1, §2, §3

Rasa1_C SH2 domain = target: T2, Rasa1_C SH2 domain (Homo sapiens, UniProt P20936); assay: Fluorescence polarization solution binding; conditions: Rhodamine B-labeled peptide, GST-SH2, Beacon 2000, read-out: Affinity (KD)
T2 sequence (P20936 351-441 limits assumed): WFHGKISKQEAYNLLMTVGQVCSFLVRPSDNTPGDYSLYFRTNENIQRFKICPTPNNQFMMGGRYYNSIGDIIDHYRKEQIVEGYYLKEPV

Plcg2_C SH2 domain = Plcg2_C SH2 domain (Homo sapiens, UniProt P16885); assay: Fluorescence polarization solution binding; conditions: Rhodamine B-labeled peptide, GST-SH2, Beacon 2000, read-out: Affinity (KD)
Chain of Plcg2_C SH2 domain (P16885 646-735 limits assumed): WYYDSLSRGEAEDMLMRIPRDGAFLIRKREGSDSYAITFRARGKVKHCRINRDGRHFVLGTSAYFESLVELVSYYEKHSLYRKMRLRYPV
Source text: as §1
(§4) As noted above, this study performs well in terms of reproducing the literature reported interactions between the 50 SH2 domains tested and the 13 proteins represented on the addressable arrays (Table 1). A handful of differences with literature-reported interactions must, by necessity, be reconciled. Our assumption is that a high-throughput (HTP) study such as this one should capture upwards of 85% of known (literature reported) interactions and that results that differ from low throughput studies described in the literature should be subject to further testing to identify the nature of the discrepancy and reveal any weakness in the HTP dataset. […] For instance, FGFR1 Y-766 (SNQEpYLDLSMP) is reported to bind to PLCγ1 in a pTyr dependant manner based on mutational analysis of FGFR1 [55, 56]. […] This may imply that either this is a binding event specific to PLCγ1 (and not PLCγ2), or that the interaction reported at the level of the full-length protein may be more complex, perhaps requiring secondary contact sites that are not available within the context of the short peptide used in the current study. […] We have made an effort to limit false negatives to those of lower affinity, and we are aware of no instance in our dataset of a sub-micromolar affinity interaction being scored as array-negative.
(§5) Peptides were synthesized using FMOC-chemistry onto pre-loaded tenta-gel resins. […] Dissociation constants were measured using the Beacon 2000 (Invitrogen) as previously described.
(§6) Binding Affinities determined by Fluorescence Polarization. […] Fluorescence polarization measurements were read on a Beacon 2000 (Invitrogen). […]

Plcg2_N SH2 domain = Plcg2_N SH2 domain (Homo sapiens, UniProt P16885); assay: Fluorescence polarization solution binding; conditions: Rhodamine B-labeled peptide, GST-SH2, Beacon 2000, read-out: Affinity (KD)
Chain of Plcg2_N SH2 domain (P16885 532-635 limits assumed): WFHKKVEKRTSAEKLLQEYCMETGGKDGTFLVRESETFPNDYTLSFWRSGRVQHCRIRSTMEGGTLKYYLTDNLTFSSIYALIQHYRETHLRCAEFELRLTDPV
Source text: as §1, §4, §5, §6

panel of 50 SH2 domains = assay: SPOT peptide array probed with each of 50 GST-SH2 domains; format: binding; conditions: SH2 domains with intensity >3X array mean; GST-SH2 0.25 μM, 1 mM DTT
In short: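 Membrane SPOT arrays of 192 phosphotyrosine 11-mer peptides (four residues N-terminal, six C-terminal to pTyr) probed with GST-SH2 fusions, detected by anti-GST plus near-infrared secondary antibody. Spots >3-fold array mean scored positive, below mean negative, 1–3× indeterminate; peptides binding GST alone above mean in two of three trials flagged as sticky.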

Lck SH2 domain = assay: SPOT peptide array; format: binding; conditions: GST-SH2 0.25 μM
Src SH2 domain [1] = target: T3, Src SH2 domain (Homo sapiens, UniProt P12931); parameters: method as in 2 sources, ref [19] = [19]; PMID 7680959; doi:10.1016/0092-8674(93)90404-e; Songyang Z Shoelson SE Chaudhuri M Gish G Pawson T Haser WG King F Roberts T Ratnofsky S Lechleider RJ SH2 domains recognize specific phosphopeptide sequences Cell 1993 72 767 778 7680959 10.1016/0092 ||| ref [119, 121] = [119]; PMID 9032297; doi:10.1128/mcb.17.3.1702; Schlaepfer DD Broome MA Hunter T Fibronectin-stimulated signaling from a focal adhesion kinase-c-Src complex: involvement of the Grb2, p130cas, and Nck adaptor proteins Mol Cell Biol 1997 17 1702 1713 || [121]; PMID 16245368; doi:10.1002/jmr.755; Nasertorabi F Tars K Becherer K Kodandapani R Liljas L Vuori K Ely KR Molecular basis for regulation of Src by the docking protein p130Cas J Mol Recognit 2006 19 30 38 16245368 10.1002/jmr.755; conditions: read-out: Affinity (KD); cited from earlier work
Src SH2 domain [2] = target: T3, Src SH2 domain; assay: SPOT peptide array; format: binding; conditions: GST-SH2 0.25 μM
In short: (§7)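 Membrane-bound 11-mer phosphotyrosine peptides from insulin, IGF-1 and FGF receptors, their substrates and signaling proteins were probed with GST–SH2 fusions and detected with anti-GST and near-infrared secondary antibodies. Spots >3× the membrane mean scored positive and below the mean negative. GST-only "sticky" peptides were excluded.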

Nck1 SH2 domain = Nck1 SH2 domain (Homo sapiens, UniProt P16333); assay: SPOT peptide array; format: binding; conditions: GST-SH2 0.25 μM, membrane-bound peptide, 1 mM DTT, LiCor read-out
In short: as §7

Bmx SH2 domain = assay: SPOT peptide array; format: binding; conditions: GST-SH2 0.25 μM, membrane-bound peptide, 1 mM DTT, LiCor read-out
In short: as §7

PI3K1_N SH2 domain = PI3K1_N SH2 domain (Homo sapiens, UniProt P27986); assay: Fluorescence polarization solution binding; conditions: Rhodamine B-labeled peptide, GST-SH2, Beacon 2000, read-out: Affinity (KD)
Chain of PI3K1_N SH2 domain (P27986 333-428 limits assumed): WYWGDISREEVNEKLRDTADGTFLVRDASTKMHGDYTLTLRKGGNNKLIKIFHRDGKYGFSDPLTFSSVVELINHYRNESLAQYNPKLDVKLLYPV
Source text: as §1, §2, §3

Crk SH2 domain = Crk SH2 domain (Homo sapiens, UniProt P46108); assay: Fluorescence polarization solution binding; conditions: Rhodamine B-labeled peptide, GST-SH2, Beacon 2000, read-out: Affinity (KD)
Chain of Crk SH2 domain (P46108 13-118 limits assumed): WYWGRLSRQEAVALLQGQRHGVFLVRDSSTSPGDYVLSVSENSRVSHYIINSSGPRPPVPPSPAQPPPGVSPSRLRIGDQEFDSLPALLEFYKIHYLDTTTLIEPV
Source text: as §1, §2, §3

Rasa1_N SH2 domain = Rasa1_N SH2 domain (Homo sapiens, UniProt P20936); assay: Fluorescence polarization solution binding; conditions: Rhodamine B-labeled peptide, GST-SH2, Beacon 2000, read-out: Affinity (KD)
Chain of Rasa1_N SH2 domain (P20936 181-272 limits assumed): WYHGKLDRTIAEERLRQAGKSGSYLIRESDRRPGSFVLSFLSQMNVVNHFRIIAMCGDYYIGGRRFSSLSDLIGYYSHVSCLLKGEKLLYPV

[3] = membrane-bound peptide, 1 mM DTT, LiCor read-out
[4] = spot intensity as factor of array mean

Chain of PI3K1_C SH2 domain (P27986 624-718 limits assumed): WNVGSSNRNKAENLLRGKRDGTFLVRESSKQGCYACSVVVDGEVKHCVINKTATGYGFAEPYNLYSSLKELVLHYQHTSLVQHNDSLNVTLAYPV

Compound: CC(C)C[C@H](NC(=O)[C@H](CC(=O)O)NC(=O)[C@H](CC(C)C)NC(=O)[C@H](Cc1ccc(OP(=O)(O)O)cc1)NC(=O)[C@H](CCC(=O)O)NC(=O)[C@H](CC(=O)O)NC(=O)[C@@H](NC(=O)[C@@H](N)CO)[C@@H](C)O)C(=O)N[C@@H](CO)C(=O)N[C@@H](C)C(=O)N1CCC[C@H]1C(=O)O [STDEpYLDLSAP]
- Kd (PI3K1_C SH2 domain): 2140 nM
- Kd (Ptpn11_N SH2 domain): 25000 nM
- Kd (Shb SH2 domain): > 50000 nM
- Kd (Rasa1_C SH2 domain): > 17000 nM
- Kd (Plcg2_C SH2 domain): 7490 nM
- Kd (Plcg2_N SH2 domain): > 50000 nM

Compound: WMEDpYDYVHLQ [11-mer phosphotyrosine peptide, p130Cas (Y664)]
- Other SH2 domains bound (additional array-positive SH2 domains) (panel of 50 SH2 domains): Bcar3, Brk, Crk, Crkl, Dapp1, Fer, Grb7, Matk, PI3K1_N, Rasa1_N, Rasa1_C, Sh3bp2 and Itk
- Array positive (Lck SH2 domain; [3]): No (Peptide spots with average intensity values between 1X-3X the array mean were defined as ‘indeterminate’. Those with intensities below 1X mean were defined as array negative)
- Peptide array intensity (X mean) (Lck SH2 domain; [4]): 2.03 X Mean
- Kd (Src SH2 domain [1]): 25 to 46 nM
- Array positive (Src SH2 domain [2]; [3]): No (Peptide spots with average intensity values between 1X-3X the array mean were defined as ‘indeterminate’. Those with intensities below 1X mean were defined as array negative)
- Peptide array intensity (X mean) (Src SH2 domain [2]; [4]): 2.45 X Mean
- Array positive (Nck1 SH2 domain): Yes (Array-positive binding was ascribed to interactions with intensities greater than three times the array mean)
- Array positive (Bmx SH2 domain): Yes (Array-positive binding was ascribed to interactions with intensities greater than three times the array mean)

Compound: CC[C@H](C)[C@H](NC(=O)[C@H](CC(N)=O)NC(=O)[C@@H](NC(=O)[C@H](Cc1ccc(OP(=O)(O)O)cc1)NC(=O)[C@H](CCC(=O)O)NC(=O)CNC(=O)[C@@H]1CCCN1C(=O)[C@@H](N)CO)C(C)C)C(=O)N[C@@H](CCC(=O)O)C(=O)N[C@@H](Cc1ccccc1)C(=O)NCC(=O)O [SPGEpYVNIEFG]
- Kd (Ptpn11_N SH2 domain): 2080 nM
- Kd (PI3K1_N SH2 domain): 2680 nM
- Kd (Crk SH2 domain): > 20000 nM
- Kd (Plcg2_C SH2 domain): 2920 nM

Compound: CC(C)C[C@H](NC(=O)[C@H](CCC(=O)O)NC(=O)[C@H](Cc1ccc(OP(=O)(O)O)cc1)NC(=O)CNC(=O)[C@H](CCC(=O)O)NC(=O)[C@H](CCC(=O)O)NC(=O)[C@@H](N)CCCCN)C(=O)N1CCC[C@H]1C(=O)N[C@@H](Cc1ccc(O)cc1)C(=O)N[C@@H](CC(N)=O)C(=O)N1CCC[C@H]1C(=O)O [KEEGpYELPYNP]
- Kd (PI3K1_C SH2 domain): 13000 nM
- Kd (Ptpn11_N SH2 domain): > 50000 nM
- Kd (PI3K1_N SH2 domain): 1850 nM
- Kd (Rasa1_C SH2 domain): 1390 nM
- Kd (Rasa1_N SH2 domain): 410 nM
